What was measured:
Assay type in all cases: physicochemical
[1] = Tablet friability, modified USP-NF <1216> (Erweka TA, 10 tablets, 25 rpm; % unbroken tablets)
Description: Friability was measured in a manner similar to that described in the USP-NF, Chapter <1216>. The USP-NF method was modified in that the number of tablet used and the method of calculation were changed as indicated here. Ten (10) tablets were placed in an Erweka TA friability apparatus. The tablets were tumbled at 25 rpm for the indicated number of minutes. The percentage of unbroken tablets is reported.

[2] = Tablet hardness (Schuleuniger-4M tablet hardness tester); details: denture cleanser tablet (Table 1 formula, citric acid), additive 0.6%
Description: Tablets were compressed using ⅞″ round tooling on a Stokes F press. Compression force was adjusted to give the hardest possible tablet (limit set by capability of the press or by the appearance of tablet capping).
Hardness was measured using a Schuleuniger-4M tablet hardness tester.
Three (3) gram tablets were compressed using ⅞″ round tooling on a Stokes F press. Compression force was adjusted to give the hardest possible tablet (limit set by capability of the press or by appearance of tablet capping).
3.3 gram tablets were compressed using ⅞″ round tooling on a Stokes F press. As above, compression force was adjusted to give the hardest possible tablet (limit set by capability of the press or by appearance of tablet capping).
2.5 gram tablets were compressed using ⅞″ round tooling on a Stokes F press. As above, compression force was adjusted to give the hardest possible tablet (limit set by capability of the press or by appearance of tablet capping).

[3] = Solubility in water of the tested materials; details: neat material
Source text: In an attempt to understand what chemical properties of the tested materials are critical to improving friability, we looked at some of the physical properties of the tested materials.

Friability (% whole tablets) 2 min ([1]; denture cleanser tablet (Table 1 formula, citric acid), additive 0.6%, tumbled 2 min): 100 % whole tablets
Friability (% whole tablets) 4 min ([1]; denture cleanser tablet (Table 1 formula, citric acid), additive 0.6%, tumbled 4 min): 100 % whole tablets
Friability (% whole tablets) 6 min ([1]; denture cleanser tablet (Table 1 formula, citric acid), additive 0.6%, tumbled 6 min): 100 % whole tablets
Friability (% whole tablets) 8 min ([1]; denture cleanser tablet (Table 1 formula, citric acid), additive 0.6%, tumbled 8 min): 100 % whole tablets
Friability (% whole tablets) 10 min ([1]; denture cleanser tablet (Table 1 formula, citric acid), additive 0.6%, tumbled 10 min): 100 % whole tablets
Friability improvement ([1]; summary for denture cleanser tablet (Table 1 formula), material at 0.6%): Yes
Hardness [2]: 9.5 kp
Solubility in Water (w/w %) [3]: 100% w/w %
SMILES: OCC(O)CO [Glycerin]

Reference: patent publication US11058642B2, “Tablets with improved friability” (TOWER LABORATORIES LTD, priority 2013, dated 2021)
